Results as given in ChEMBL document CHEMBL1123428, “In vitro labeling of serotonin-S2 receptors: synthesis and binding characteristics of [3H]-7-aminoketanserin” (J Med Chem, 1986).

Key:
[1] = species on record: Rattus norvegicus; test: Compound was evaluated for its activity at membrane-bound receptor (M+L+P fraction) from rat frontal cortex; assay type: functional, organism-based; settings: for IC50: Rattus norvegicus, Frontal cortex
[2] = species on record: Rattus norvegicus; test: Compound was evaluated for its activity at solubilized receptor (CHAPS/salt-solubilized preparation) from rat frontal cortex; assay type: functional, organism-based; settings: for IC50: Rattus norvegicus, Frontal cortex

Row | SMILES | Ki [1] [nM] | IC50 [1] [nM] | Ki [2] [nM] | IC50 [2] [nM]
1 | NCCc1c[nH]c2ccc(O)cc12 [SEROTONIN] | 919 | 3550 | 14100 | 28200
2 | COc1cc2nc(N3CCN(C(=O)c4ccco4)CC3)nc(N)c2cc1OC [PRAZOSIN] | 11600 | 44700 | 19900 | 39800
3 | Cc1nc2ccccn2c(=O)c1CCN1CCC(C(=O)c2ccc(F)cc2)CC1 [PIRENPERONE] | 0.47 | 1.82 | 3.54 | 7.08
4 | O=c1[nH]c2ccccc2n1CCCN1CCC(n2c(=O)[nH]c3cc(Cl)ccc32)CC1 [DOMPERIDONE] | 152 | 589 | 998 | 2000
5 | COc1cccc(OC)c1OCCNCC1COc2ccccc2O1 (centres undefined) | 697 | 2690 | 3880 | 7760
6 | NC(=O)C1(N2CCCCC2)CCN(CCCC(=O)c2ccc(F)cc2)CC1 [PIPAMPERONE] | 1.39 | 5.37 | 9.53 | 19.1
